{"source": "patent US10525110B2", "about": "“Methods for inducing partial apoptosis using caspase polypeptides” (Bellicum Pharmaceuticals, Inc., priority 2013, dated 2020)", "key": {"[1]": {"test_system": "iCasp9M-transduced EBV-CTLs", "assay": "CID-induced elimination of GFP+ iCasp9M-transduced EBV-CTLs (flow cytometry for GFP)", "assay_type": "cell-based, human"}, "non-transduced cells": {"test_system": "non-transduced cells", "assay": "Viability of non-transduced cells with AP20187", "assay_type": "cell-based, human", "method": "Suicide gene functionality was assessed by adding a small molecule synthetic homodimerizer, AP20187 (Ariad Pharmaceuticals; Cambridge, Mass.), at 10 nM final concentration the day following CD19 immunomagnetic selection. Cells were stained with annexin V and 7-amino-actinomycin (7-AAD)(BD Pharmingen) at 24 hours and analyzed by flow cytometry. Cells negative for both annexin V and 7-AAD were considered viable, cells that were annexin V positive were apoptotic, and cells that were both annexin V and 7-AAD positive were necrotic. The percentage killing induced by dimerization was corrected for baseline viability as follows: Percentage killing=100%−(% Viability in AP20187-treated cells÷% Viability in non-treated cells).\nThe day following immunomagnetic selection, 10 nM of the chemical inducer of dimerization, AP20187, was added to induce apoptosis, which appeared within 24 hours. […] Killing efficiency after correction for baseline viability was about 92.9%±3.8%. Large-scale CD19 selection produced cells that were killed with similar efficiency as small-scale selection: mean viability with and without AP20187, and percentage killing, in large and small scale were about 3.9%, about 84.0%, about 95.4% (n=3) and about 6.6%, about 79.3%, about 91.4% (n=5) respectively. […]"}, "[2]": {"test_system": "differentiated progeny of human MSCs expressing iCasp9", "assay": "Apoptosis of differentiated iCasp9-positive MSCs (TUNEL, cell density)", "assay_type": "cell-based", "conditions": "adipocytic differentiation, 50 nM CID, after 24 hours (from 584 cells/mm2)", "method": "Differentiated MSCs. Transduced MSCs were differentiated as presented above. At the end of the differentiation period, CID was added to the differentiation media at 50 nM. Cells were stained appropriately for the tissue being studied, as presented above, and a contrast stain (methylene azur or methylene blue) was used to evaluate the nuclear and cytoplasmic morphology. In parallel, tissues were processed for terminal deoxynucleotidyl-transferase dUTP nick end labeling (TUNEL) assay as per manufacturer instructions (In Situ Cell Death Detection Kit, Roche Diagnostics, Mannheim, Germany). For each time point, four random fields were photographed at a final magnification of 40× and the images were analyzed with ImageJ software version 1.43o (NIH, Bethesda, Md.). Cell density was calculated as the number of nuclei (DAPI positivity) per unit of surface area (in mm^2). The percentage of apoptotic cells was determined as the ratio of the number of nuclei with positive TUNEL signal (FITC positivity) to the total number of nuclei. Controls were maintained in culture without CID.\nAfter culture in adipocytic differentiation media, iCasp9-positive cells gave rise to adipocytes. After exposure to 50 nM CID, progressive apoptosis was observed as evidenced by an increasing proportion of TUNEL-positive cells. […]"}, "[3]": {"test_system": "iCasp9-ΔCD19-transduced MSCs", "assay": "In vivo killing of iCasp9-ΔCD19-transduced MSCs in SCID mice (luminescence, qPCR)"}}}
{"molecule": "CC[C@H](C(=O)N1CCCC[C@H]1C(=O)O[C@H](CCc1ccc(OC)c(OC)c1)c1cccc(OCC(=O)NCC(CNC(=O)COc2cccc([C@@H](CCc3ccc(OC)c(OC)c3)OC(=O)[C@@H]3CCCCN3C(=O)[C@@H](CC)c3cc(OC)c(OC)c(OC)c3)c2)CN(C)C)c1)c1cc(OC)c(OC)c(OC)c1", "note": "[AP20187]", "values": [{"measurement": "reduction in mean fluorescence intensity of GFP after CID", "setting": "[1]; CTLs that survived CID treatment", "result": 70, "unit": "%"}, {"measurement": "further elimination of the surviving GFP+ T cells", "setting": "[1]; antigenic stimulation followed by a second 10-nM dose of CID", "result": "No further elimination"}, {"measurement": "CID sufficient to obtain the maximal deletion effect", "setting": "[1]; titration, F-Casp9M.I.GFPhigh, survival of GFP+ cells on day 7", "result": 1, "unit": "nM"}, {"measurement": "GFP+ cells eliminated after a single 10-nM dose of CID", "setting": "[1]; unselected iCasp9M-transduced CTLs, 5 different donors", "result": 91.3, "unit": "%"}, {"measurement": "toxicity to non-transduced cells", "setting": "non-transduced cells", "result": "non-toxic"}, {"measurement": "viability of non-transduced cells with AP20187", "setting": "non-transduced cells; n=6", "result": "about 86%±9"}, {"measurement": "cell density after CID", "setting": "[2]", "result": "< 14", "unit": "cells/mm2"}, {"measurement": "surviving iCasp9-positive cells, % of the original population", "setting": "[3]; after one week, qPCR", "result": 0.7, "unit": "%"}, {"measurement": "effect on cells negative for iCasp9", "setting": "[3]; luminescence", "result": "not affected"}]}
